Measurements: patent publication US20260035387A1 (BIOGEN MA INC., priority 2022, published 2026)
pIC50: −log10 of the molar value.

These compounds were tested on mutant Huntington (HTT) protein (assay: HTT Mutant HTRF iPSC assay (mHTT protein lowering)). Conditions: human iPSC derived from a HTT patient with a poly-Q49 mutation.
Format: cell-based

Question: How did the pIC50 turn out when `Cc1cn2cc(NC(=O)c3cc4ccc(N5CC[C@]6(CCCN6C)C5)nc4s3)nc(C(F)F)c2n1` (single isomer, unassigned) [Compound 255] was run?
Answer: Its pIC50 is over 7.00.

Question: `COc1cc2nn(C)cc2cc1NC(=O)c1cc2ncc(N3CCC4(CCN4C)C3)nc2s1` (single isomer, unassigned) [Compound 264] was tested. Which pIC50 did it give?
Answer: The pIC50 was over 7.00.

Question: With `COc1c(NC(=O)c2cc3ccc(C4CCN(C)C4)nc3s2)cc2cn(C)nc2c1F` (single isomer, unassigned) [Compound 265] as the compound, how does the pIC50 read?
Answer: The pIC50 was over 7.00.

Question: With `COc1c(NC(=O)c2cc3ccc(C4CCN(C)C4)nc3s2)cc2cn(C)nc2c1F` (single isomer, unassigned) [Compound 266] as the compound, how does the pIC50 read?
Answer: The pIC50 was over 7.00.

Question: With `Cc1cn2cc(NC(=O)c3cc4ccc(N5CCC(N(C)C)C5)nc4s3)ccc2n1` (stereo in doubt) [Compound 25, (R)-6-(3-(dimethylamino)pyrrolidin-1-yl)-N-(2-methylimidazo[1,2-a]pyridin-6-yl)thieno[2,3-b]pyridine-2-carboxamide] as the compound, how does the pIC50 read?
Answer: Its pIC50 is 6.00 to 7.00.

Question: How did the pIC50 turn out when `Cc1cn2cc(NC(=O)c3cc4ccc(N5CCC(N(C)C)C5)nc4s3)ccc2n1` (stereo in doubt) [Compound 26, (S)-6-(3-(dimethylamino)pyrrolidin-1-yl)-N-(2-methylimidazo[1,2-a]pyridin-6-yl)thieno[2,3-b]pyridine-2-carboxamide] was run?
Answer: Its pIC50 is 6.00 to 7.00.

Question: `Cc1cn2cc(NC(=O)c3cc4ccc(N5CC[C@H]6CN(C)CC[C@H]65)nc4s3)ccc2n1` (stereo in doubt) [Compound 28, N-(2-methylimidazo[1,2-a]pyridin-6-yl)-6-((3aS,7aR)-5-methyloctahydro-1H-pyrrolo[3,2-c]pyridin-1-yl)thieno[2,3-b]pyridine-2-carboxamide] was tested. Which pIC50 did it give?
Answer: Its pIC50 is 5.05 to 6.00.

Question: How did the pIC50 turn out when `Cc1cn2cc(NC(=O)c3cc4ccc(N5CCC6CCN(C)C6C5)nc4s3)ccc2n1` (stereo in doubt) [Compound 30, N-(2-methylimidazo[1,2-a]pyridin-6-yl)-6-((3aR,7aR)-1-methyloctahydro-6H-pyrrolo[2,3-c]pyridin-6-yl)thieno[2,3-b]pyridine-2-carboxamide] was run?
Answer: Its pIC50 is 6.00 to 7.00.

Question: How did the pIC50 turn out when `Cc1cn2cc(NC(=O)c3cc4ccc(N5C[C@H]6C[C@@H]5CN6C(C)C)nc4s3)ccc2n1` (stereo in doubt) [Compound 34, 6-((1R,4R)-5-isopropyl-2,5-diazabicyclo[2.2.1]heptan-2-yl)-N-(2-methylimidazo[1,2-a]pyridin-6-yl)thieno[2,3-b]pyridine-2-carboxamide] was run?
Answer: Its pIC50 is over 7.00.

Question: How did the pIC50 turn out when `Cc1cn2cc(NC(=O)c3cc4ccc(N5CC6CCN(C)C6C5)nc4s3)ccc2n1` (stereo in doubt) [Compound 43, 6-((3aR,6aR)-1-methylhexahydropyrrolo[3,4-b]pyrrol-5(1H)-yl)-N-(2-methylimidazo[1,2-a]pyridin-6-yl)thieno[2,3-b]pyridine-2-carboxamide] was run?
Answer: Its pIC50 is 6.00 to 7.00.

Question: With `CCN[C@H]1CCN(c2ccc3cc(C(=O)Nc4cc(F)c5nc(C)cn5c4)sc3n2)C1` (stereo in doubt) [Compound 67, 6-[(3S)-3-(ethylamino)pyrrolidin-1-yl]-N-(8-fluoro-2-methyl-imidazo[1,2-a]pyridin-6-yl)thieno[2,3-b]pyridine-2-carboxamide] as the compound, how does the pIC50 read?
Answer: The pIC50 was over 7.00.

Question: `CCN[C@@H]1CCN(c2ccc3cc(C(=O)Nc4cc(F)c5nc(C)cn5c4)sc3n2)C1` (stereo in doubt) [Compound 68, 6-[(3R)-3-(ethylamino)pyrrolidin-1-yl]-N-(8-fluoro-2-methyl-imidazo[1,2-a]pyridin-6-yl)thieno[2,3-b]pyridine-2-carboxamide] was tested. Which pIC50 did it give?
Answer: Its pIC50 is over 7.00.

Question: How did the pIC50 turn out when `Cc1cn2cc(NC(=O)c3nc4ccc(N5CC[C@@H](N6CCC6)C5)nc4s3)cc(F)c2n1` (stereo in doubt) [Compound 92, (rel-(R)-5-(3-(azetidin-1-yl)pyrrolidin-1-yl)-N-(8-fluoro-2-methylimidazo[1,2-a]pyridin-6-yl)thiazolo[5,4-b]pyridine-2-carboxamide] was run?
Answer: The pIC50 was over 7.00.

Question: `COc1cc(NC(=O)c2cc3nc(N4C[C@H]5CN(C)C[C@H]54)ccc3o2)cn2cc(C)nc12` (stereo in doubt) [Compound 168, N-(8-methoxy-2-methyl-imidazo[1,2-a]pyridin-6-yl)-5-[(1R,5S)-3-methyl-3,6-diazabicyclo[3.2.0]heptan-6-yl]furo[3,2-b]pyridine-2-carboxamide] was tested. Which pIC50 did it give?
Answer: Its pIC50 is over 7.00.

Question: `Cc1cn2cc(NC(=O)c3cc4ccc(N5CCC(N(C)C)C5)nc4s3)ccc2n1` (stereo not shown) [Compound 1, 6-[3-(dimethylamino)pyrrolidin-1-yl]-N-(2-methylimidazo[1,2-a]pyridin-6-yl)thieno[2,3-b]pyridine-2-carboxamide] was tested. Which pIC50 did it give?
Answer: Its pIC50 is 5.05 to 6.00.

Question: `Cc1cc(NC(=O)c2cc3ccc(N4C[C@@H](C)N[C@@H](C)C4)nc3s2)cc2cn(C)nc12` [Compound 2, N-(2,7-dimethylindazol-5-yl)-6-[(3S,5R)-3,5-dimethylpiperazin-1-yl]thieno[2,3-b]pyridine-2-carboxamide] was tested. Which pIC50 did it give?
Answer: The pIC50 was over 7.00.

Question: `Cc1cn2cc(NC(=O)c3cc4ccc(N5CCN(C)CC5)nc4s3)nc(C)c2n1` [Compound 3, N-(2,8-dimethylimidazo[1,2-a]pyrazin-6-yl)-6-(4-methylpiperazin-1-yl)thieno[2,3-b]pyridine-2-carboxamide] was tested. Which pIC50 did it give?
Answer: The pIC50 was 6.00 to 7.00.

Question: How did the pIC50 turn out when `Cc1cc(NC(=O)c2cc3ccc(N4CCC(N(C)C)C4)nc3s2)cc2cn(C)nc12` (stereo not shown) [Compound 4, N-(2,7-dimethyl-2H-indazol-5-yl)-6-(3-(dimethylamino)pyrrolidin-1-yl)thieno[2,3-b]pyridine-2-carboxamide] was run?
Answer: Its pIC50 is 6.00 to 7.00.

Question: How did the pIC50 turn out when `Cc1cn2cc(NC(=O)c3cc4ccc(N5CCC(N(C)C)C5)nc4s3)nc(C)c2n1` (stereo not shown) [Compound 5, 6-(3-(dimethylamino)pyrrolidin-1-yl)-N-(2,8-dimethylimidazo[1,2-a]pyrazin-6-yl)thieno[2,3-b]pyridine-2-carboxamide] was run?
Answer: The pIC50 was 6.00 to 7.00.

Question: `Cc1cn2cc(NC(=O)c3cc4ccc(N5CC[C@@H](N(C)C)C5)nc4s3)ncc2n1` [Compound 6, 6-[(3R)-3-(dimethylamino)pyrrolidin-1-yl]-N-(2-methylimidazo[1,2-a]pyrazin-6-yl)thieno[2,3-b]pyridine-2-carboxamide] was tested. Which pIC50 did it give?
Answer: The pIC50 was 6.00 to 7.00.

Question: How did the pIC50 turn out when `Cc1cc(NC(=O)c2cc3nc(N4CCC(N(C)C)C4)ccc3o2)cc2cn(C)nc12` (stereo not shown) [Compound 7, N-(2,7-dimethyl-2H-indazol-5-yl)-5-(3-(dimethylamino)pyrrolidin-1-yl)furo[3,2-b]pyridine-2-carboxamide] was run?
Answer: Its pIC50 is 5.05 to 6.00.

Question: With `Cc1cn2cc(NC(=O)c3cc4nc(N5CC[C@H](N(C)C)C5)ccc4o3)cc(F)c2n1` [Compound 8, 5-[(3S)-3-(dimethylamino)pyrrolidin-1-yl]-N-(8-fluoro-2-methyl-imidazo[1,2-a]pyridin-6-yl)furo[3,2-b]pyridine-2-carboxamide] as the compound, how does the pIC50 read?
Answer: The pIC50 was 5.05 to 6.00.

Question: How did the pIC50 turn out when `Cc1cn2cc(NC(=O)c3nc4ccc(N5CCC(N(C)C)C5)nc4s3)ccc2n1` (stereo not shown) [Compound 9, 5-[3-(dimethylamino)pyrrolidin-1-yl]-N-(2-methylimidazo[1,2-a]pyridin-6-yl)thiazolo[5,4-b]pyridine-2-carboxamide] was run?
Answer: The pIC50 was 5.05 to 6.00.

Question: `Cc1cn2cc(NC(=O)c3cc4ccc(N5CC[C@@H](N(C)C)C5)nc4s3)cc(F)c2n1` [Compound 10, 6-[(3R)-3-(dimethylamino)pyrrolidin-1-yl]-N-(8-fluoro-2-methyl-imidazo[1,2-a]pyridin-6-yl)thieno[2,3-b]pyridine-2-carboxamide] was tested. Which pIC50 did it give?
Answer: Its pIC50 is over 7.00.

Question: How did the pIC50 turn out when `Cc1cn2cc(NC(=O)c3cc4ccc(N5CCC(N(C)C)CC5)nc4s3)ccc2n1` [Compound 11, 6-(4-(dimethylamino)piperidin-1-yl)-N-(2-methylimidazo[1,2-a]pyridin-6-yl)thieno[2,3-b]pyridine-2-carboxamide] was run?
Answer: Its pIC50 is 6.00 to 7.00.

Question: How did the pIC50 turn out when `Cc1cn2cc(NC(=O)c3cc4ccc(NC5CC6CCCN6C5)nc4s3)ccc2n1` (stereo not shown) [Compound 12, 6-((hexahydro-1H-pyrrolizin-2-yl)amino)-N-(2-methylimidazo[1,2-a]pyridin-6-yl)thieno[2,3-b]pyridine-2-carboxamide] was run?
Answer: The pIC50 was 6.00 to 7.00.

Question: With `Cc1cn2cc(NC(=O)c3cc4ccc(NC5CCC6CN(C)CC65)nc4s3)ccc2n1` (stereo not shown) [Compound 13, N-(2-methylimidazo[1,2-a]pyridin-6-yl)-6-((2-methyloctahydrocyclopenta[c]pyrrol-4-yl)amino)thieno[2,3-b]pyridine-2-carboxamide] as the compound, how does the pIC50 read?
Answer: Its pIC50 is 5.05 to 6.00.

Question: `Cc1cn2cc(NC(=O)c3cc4ccc(NC5CCN6CCCC6C5)nc4s3)ccc2n1` (stereo not shown) [Compound 14, N-(2-methylimidazo[1,2-a]pyridin-6-yl)-6-((octahydroindolizin-7-yl)amino)thieno[2,3-b]pyridine-2-carboxamide] was tested. Which pIC50 did it give?
Answer: Its pIC50 is 6.00 to 7.00.

Question: `Cc1cn2cc(NC(=O)c3cc4ccc(N5CCC6OCCN(C)C6C5)nc4s3)ccc2n1` (stereo not shown) [Compound 15, 6-(4-methylhexahydro-2H-pyrido[4,3-b][1,4]oxazin-6(5H)-yl)-N-(2-methylimidazo[1,2-a]pyridin-6-yl)thieno[2,3-b]pyridine-2-carboxamide] was tested. Which pIC50 did it give?
Answer: The pIC50 was 6.00 to 7.00.

Question: With `Cc1cn2cc(NC(=O)c3cc4ccc(N5CCC6CCN(C)CC65)nc4s3)ccc2n1` (stereo not shown) [Compound 16, N-(2-methylimidazo[1,2-a]pyridin-6-yl)-6-(6-methyloctahydro-1H-pyrrolo[2,3-c]pyridin-1-yl)thieno[2,3-b]pyridine-2-carboxamide] as the compound, how does the pIC50 read?
Answer: The pIC50 was 5.05 to 6.00.

Question: How did the pIC50 turn out when `Cc1cn2cc(NC(=O)c3cc4ccc(N5CCC(N6CC(C)(C)C6)CC5)nc4s3)ccc2n1` [Compound 17, 6-(4-(3,3-dimethylazetidin-1-yl)piperidin-1-yl)-N-(2-methylimidazo[1,2-a]pyridin-6-yl)thieno[2,3-b]pyridine-2-carboxamide] was run?
Answer: The pIC50 was 5.05 to 6.00.

Question: With `Cc1cn2cc(NC(=O)c3cc4ccc(N5C[C@@H](C)N(C)[C@@H](C)C5)nc4s3)ccc2n1` [Compound 18, N-(2-methylimidazo[1,2-a]pyridin-6-yl)-6-((3R,5S)-3,4,5-trimethylpiperazin-1-yl)thieno[2,3-b]pyridine-2-carboxamide] as the compound, how does the pIC50 read?
Answer: Its pIC50 is over 7.00.

Question: How did the pIC50 turn out when `Cc1cn2cc(NC(=O)c3cc4ccc(N5CCC(N6CCCC6)C5)nc4s3)ccc2n1` (stereo not shown) [Compound 19, 6-([1,3′-bipyrrolidin]-1′-yl)-N-(2-methylimidazo[1,2-a]pyridin-6-yl)thieno[2,3-b]pyridine-2-carboxamide] was run?
Answer: The pIC50 was 6.00 to 7.00.

Question: `Cc1cn2cc(NC(=O)c3cc4ccc(N5CCC6(CCN(C)CC6)CC5)nc4s3)ccc2n1` [Compound 20] was tested. Which pIC50 did it give?
Answer: The pIC50 was 6.00 to 7.00.
